Data from patent US7943382B2, “Method for inspecting fat-soluble vitamin and/or fat-soluble food factor by saliva analysis” (Mitsubishi Chemical Medience Corporation, priority 2004, dated 2011).

What was measured:
[1] = Transition of the CoQ10 level in parotid saliva depending on ingestion states of Supplement N; type: in vivo, human
Method: For the ingestion test of CoQ10, commercial supplement S containing CoQ10 of 50 mg per one tablet and commercial supplement N containing 30 mg per one tablet were used. 10 volunteers in the group S and 10 volunteers in the group N were made to ingest orally the supplement s and the supplement N respectively. For ingestion of supplement S, each volunteer was made to ingest orally two tablets at 9:00 every morning continuously for a week, and for the next week, made to ingest orally double amount, four tablets at 9:00 every morning continuously, and then stopped from ingestion for two weeks. For ingestion of supplement N, each volunteer was made to ingest orally three tablets at 9:00 every morning continuously for a week, and for the next week, made to ingest orally double amount, six tablets at 9:00 every morning continuously, and then stopped from ingestion for two weeks. As specimens in both the groups S and N, parotid saliva and heparinized plasma were collected from PM 4:00 to 5:00, total four times, that is, before and one week after ingestion, at double dose ingestion, and two weeks after discontinuation of ingestion. The volunteer had the mouth rinsed with water prior to collection, kept quiet on a chair for 5 minutes, while the volunteer accumulated saliva in the oral cavity and discharged to initialize the oral cavity, followed by collecting parotid saliva. For collection of parotid saliva, the Saliva-sampler is inserted between the teeth and the cheek near the open of the parotid gland, the volunteer sat quiet on a chair, during which saliva was collected, while the volunteer swallowed saliva, which was secreted from the sublingual gland and the submandibular gland and accumulated in the mandible, to prevent contamination with the saliva from the sublingual gland and the submandibular gland. For analysis of CoQ10 in saliva collected from the parotid gland, the Saliva-sampler with absorbed saliva was transferred to the peculiar tube holding 1 ml of 50% ethanol, to which […] of ethanol was added to have a final concentration of […]. […]

[2] = Extraction of CoQ10 from saliva and absorbent depending on deproteinization solvent; type: physicochemical
Method: In the method of preparing the specimens in examples 1 and 2, the solvents were weighed using ethanol (90, 75, 50%), isopropanol (90, 75, 50%) or methanol (90, 75, 50%). Saliva of 600 μl, and 600, 1800 and 5400 μl of the solvent respectively were added to 50 mg of an absorbent to have a final concentrations of 50, 75 and 90% (V/V) respectively. The resultant solution was mixed, stirred, and centrifuged at 4° C. by 1000 G to get a supernatant, 20 μl of which was used to analyze CoQ10 by HPLC. As a result, the values shown in the following Table 2 “The CoQ10 concentrations in the supernatant obtained by deproteinizing saliva in three solvents and at three concentration levels (ng/ml)” were obtained. Ethanol, which was not affected by adsorption to proteins even at a concentration of 75% and could efficiently extract, was confirmed to be most suitable.

[3] = Extraction of CoQ10 from absorbent materials with 75% (V/V) ethanol; type: physicochemical
Method: In the method of preparing the specimens in example 2, the absorbent materials for saliva and the collection rate by extraction with 75% (V/V) ethanol were weighed. An absorbent of 50 mg was soaked in 600 μl of saliva, to which […] of ethanol was added, mixed, and centrifuged at 4° C. by 1000 G or 5 minutes to remove proteins, and 20 μl of the supernatant was subjected to HPLC. The results of analysis for CoQ10 are shown in Table 3 as “CoQ10 concentrations in saliva which was obtained by steps that 50 mg of the absorbent was soaked in 600 μl of saliva and the saliva was extracted with 1800 μl of ethanol (final concentration: 75%)”. […] Thus, although the fat-soluble components in saliva are adsorbed to the absorbent, the content in a certain amount of saliva can be determined by analyzing the summation of the fat-soluble food factors and the fat-soluble vitamins contained in saliva preserved in the absorbent and interspace.

[4] = Acetylcellulose + ethanol (final concentration 75%)
[5] = Cotton + ethanol (final concentration 75%)
[6] = Polyester + ethanol (final concentration 75%)
[7] = Polyurethane + ethanol (final concentration 75%)

- transition of the CoQ10 level in parotid saliva ([1]; volunteer N9, ingestion approximately three hours after breakfast): small increase
- transition of the CoQ10 level in parotid saliva ([1]; volunteers N1 and N5 (no or often lacking breakfast), increased amount of the supplement): hardly increased
- Collection amount of CoQ10 by the solvents ([2]; ethanol 50 V/V %): 3 ng/mL
- Collection amount of CoQ10 by the solvents ([2]; ethanol 75 V/V %): 86 ng/mL
- Collection amount of CoQ10 by the solvents ([2]; ethanol 90 V/V %): 98 ng/mL
- Collection amount of CoQ10 by the solvents ([2]; isopropanol 50 V/V %): 23 ng/mL
- Collection amount of CoQ10 by the solvents ([2]; isopropanol 75 V/V %): 19 ng/mL
- Collection amount of CoQ10 by the solvents ([2]; isopropanol 90 V/V %): 56 ng/mL
- Collection amount of CoQ10 by the solvents ([2]; methanol 50 V/V %): 2 ng/mL
- Collection amount of CoQ10 by the solvents ([2]; methanol 75 V/V %): 2 ng/mL
- Collection amount of CoQ10 by the solvents ([2]; methanol 90 V/V %): 61 ng/mL
- CoQ10 concentration in saliva after extraction [3, 4]: 31.8 ng/mL
- Collection rate [3, 4]: 94.3%
- CoQ10 concentration in saliva after extraction [3, 5]: 32.2 ng/mL
- Collection rate [3, 5]: 95.6%
- CoQ10 concentration in saliva after extraction [3, 6]: 34.2 ng/mL
- Collection rate [3, 6]: 102%
- CoQ10 concentration in saliva after extraction [3, 7]: 32.1 ng/mL
- Collection rate [3, 7]: 95.2%
- CoQ10 concentration in saliva ([3]; Saliva (control)): 33.7 ng/mL
- Collection rate ([3]; Saliva (control)): 100%
- collection by extraction, independent of the absorbent material ([3]; ethanol 75% (V/V)): approximately 100%
Compound: COC1=C(OC)C(=O)C(C/C=C(\C)CC/C=C(\C)CC/C=C(\C)CC/C=C(\C)CC/C=C(\C)CC/C=C(\C)CC/C=C(\C)CC/C=C(\C)CC/C=C(\C)CCC=C(C)C)=C(C)C1=O [CoQ10, Ubidecarenone]
- transition of the CoQ10 level in parotid saliva ([1]; 3 tablets/day one week, 6 tablets/day next week, then two weeks discontinuation, other 7 volunteers, FIG. 7): increased by ingestion of the supplement with CoQ10, furthermore increased by more ingestion, and decreased after discontinuation of ingestion
